Results as given in patent US20200062696A1, “COMPOSITIONS AND METHODS FOR INHIBITING RETICULON 4” (THE REGENTS OF THE UNIVERSITY OF CALIFORNIA, priority 2017, published 2020).
Entries after “also recorded” stand apart in the source; their conditions may differ.

Tests used:
pure human RTN4 protein = target: T1, pure human RTN4 protein (Homo sapiens, UniProt Q9NQC3); experiment: Gel-based ABPP competition against IAyne labeling of pure human RTN4 protein; format: binding
T1 construct: purchased Fisher Scientific
T1 sequence (Q9NQC3 1-1192): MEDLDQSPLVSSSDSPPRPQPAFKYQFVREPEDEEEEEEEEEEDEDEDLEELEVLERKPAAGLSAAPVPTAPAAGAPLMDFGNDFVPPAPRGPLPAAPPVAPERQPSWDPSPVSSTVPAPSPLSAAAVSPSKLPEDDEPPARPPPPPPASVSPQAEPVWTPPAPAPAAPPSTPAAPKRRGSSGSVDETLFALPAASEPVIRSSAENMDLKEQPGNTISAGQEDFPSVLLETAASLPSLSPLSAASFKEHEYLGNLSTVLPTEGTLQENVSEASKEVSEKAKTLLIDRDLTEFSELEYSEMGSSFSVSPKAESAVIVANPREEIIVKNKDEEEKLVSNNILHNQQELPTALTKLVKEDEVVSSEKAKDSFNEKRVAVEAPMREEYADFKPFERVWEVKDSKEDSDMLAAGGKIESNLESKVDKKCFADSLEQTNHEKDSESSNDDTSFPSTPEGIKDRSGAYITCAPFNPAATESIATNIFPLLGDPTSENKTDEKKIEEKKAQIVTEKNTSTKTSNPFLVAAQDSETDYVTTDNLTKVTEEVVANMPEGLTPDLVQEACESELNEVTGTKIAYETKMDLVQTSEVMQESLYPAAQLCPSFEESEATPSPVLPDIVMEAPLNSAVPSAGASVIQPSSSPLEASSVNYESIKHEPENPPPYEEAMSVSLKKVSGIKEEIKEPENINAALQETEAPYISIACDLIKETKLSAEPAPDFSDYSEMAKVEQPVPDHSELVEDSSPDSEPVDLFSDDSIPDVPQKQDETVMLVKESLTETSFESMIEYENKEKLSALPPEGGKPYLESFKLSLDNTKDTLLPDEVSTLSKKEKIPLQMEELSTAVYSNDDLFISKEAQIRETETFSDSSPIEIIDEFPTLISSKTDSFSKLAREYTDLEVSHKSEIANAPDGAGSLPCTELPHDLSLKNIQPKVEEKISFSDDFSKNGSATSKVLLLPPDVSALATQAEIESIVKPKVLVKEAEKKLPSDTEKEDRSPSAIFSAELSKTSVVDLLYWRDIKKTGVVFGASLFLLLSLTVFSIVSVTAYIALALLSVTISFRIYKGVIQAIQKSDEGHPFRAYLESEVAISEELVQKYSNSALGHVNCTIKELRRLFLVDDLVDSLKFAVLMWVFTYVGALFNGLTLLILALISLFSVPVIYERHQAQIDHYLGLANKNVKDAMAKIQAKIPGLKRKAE
Protocol: (§1) FIGS. 11A-11C. DKM 3-30 and analogs. (FIG. 11A) Structures of DKM 3-30 and analogs. (FIG. 11B) Gel-based ABPP analysis showing competition side-by-side competition studies of DKM 3-30, YP 1-46, and AMR 1-125 against IA-rhodamine labelling of pure human RTN4. Shown are the 50% inhibitory concentration (IC50) values for each compound. (FIG. 11C) Serum-free cell survival of U2OS (48 h) or SW620 (24 h) cells treated with DMSO vehicle or each compound (50 μM). Data in (C) are presented as mean±sem. Significance is expressed as *p<0.001 compared to vehicle-treated controls.
Gel-Based ABPP. Gel-based ABPP methods were performed as previously described^24. Recombinant RTN4 (0.06 μg) protein (RTN4-Fisher Scientific) were pre-treated with DMSO or DKM 3-30, respectively, for 1 h at 37° C. in an incubation volume of 50 μL PBS, and were subsequently treated with IAyne (10 μM final concentration) for 30 min at 37° C. CuAAC was performed to append rhodamine-azide onto IAyne probe-labeled proteins. The samples were separated by SDS/PAGE and scanned using a ChemiDoc MP (Bio-Rad Laboratories, Inc). Inhibition of target labeling was assessed by densitometry using ImageStudio Light software.

U2OS osteosarcoma cells = experiment: Serum-free cell survival of U2OS cells; format: cell-based; details: 50 μM, 48 h
Protocol: as §1
(§2) Cell Culture. SW620 cells were purchased from ATCC. SW620 cells were grown in L-15 media with 10% fetal bovine serum (FBS) in ambient CO2. U2OS cells were grown in DMEM media supplemented with 10% FBS at 37° C. with 5% CO2.
(§3) Survival and Proliferation Assays. Cells were plated the evening before the experiment, and allowed to adhere overnight. For serum-free cell survival assays, cells were plated in media not containing FBS. For cell proliferation assays, cells were plated in regular media. For the chemical genetics screen, cells were treated with either DMSO or the cysteine-reactive fragment for 48 h and cell viability was assessed by Hoescht stain using our previously described methods

[1] = test system: U2OS cells expressing GFP-tagged Sec61β; experiment: ER morphology by fluorescence microscopy in U2OS cells expressing GFP-Sec61β; format: cell-based; details: DKM 3-30 50 μM (8 hr, 16 hr, time-lapse); AMR 1-125 1 μM; YP 1-46 50 μM
Protocol: Fluorescence microscopy. SW620 and U2OS cells were transiently transfected with a plasmid encoding GFP-tagged Sec61β using fuGENE6 (Roche) according to the manufacturer's instructions. Transfected cells plated on poly-L-lysine treated coverslips were treated, washed in PBS, and fixed by incubation in 4% paraformaldehyde in PBS for 10 min. Fixed cells were washed extensively in PBS and nuclei stained by addition of 4′,6-diamidino-2-phenylindole (DAPI) (Thermo Fisher Scientific) for 10 min. Coverslips were mounted using Fluoromount-G (SouthernBiotech) and visualized using a DeltaVision Elite microscope outfitted with a 60× oil immersion objective. Acquired stacks of images of fixed cells were deconvolved and analyzed using SoftWoRx and ImageJ. For time-lapse imaging of live cells, transfected cells were plated on poly-L-lysine treated glass-bottom 4-well imaging chambers (Lab-Tek II; Thermo Fisher Scientific). Imaging was performed using a DeltaVision Elite microscope encased in a chamber that was maintained at 37° C. and was continuously perfused with humidified 5% CO2. Acquired images were analyzed using SoftWoRx and ImageJ.

[2] = test system: SW620 colorectal cancer cells; experiment: Serum-free cell survival of SW620 cells (Hoescht staining); format: cell-based; details: 50 μM, 24 h
[3] = test system: SW620 colorectal cancer cells; experiment: as above; format: cell-based; details: Homo sapiens, SW-620, cysteine-reactive fragment 50 μM, 48 h, vs DMSO, average of n = 3/group, read-out: SW620 survival Ave
Protocol: as §2, §3

[4] = test system: SW620 colorectal cancer cells; experiment: Cell proliferation of SW620 cells (Hoescht staining); format: cell-based; details: Homo sapiens, SW-620, cysteine-reactive fragment 50 μM, 48 h, vs DMSO, average of n = 3/group, read-out: SW620 proliferation Ave
Protocol: as §2, §3

| SMILES | viability at 50 µM [3] [%] | activity at 50 µM [4] [%] | also measured |
| --- | --- | --- | --- |
| C=CC(=O)Nc1ccc(Oc2ccc(OC)cc2)cc1 [YP 1-46, N-(4-(4-methoxyphenoxy)phenyl)acrylamide] | – | – | displacement of IAyne labelling of RTN4 (pure human RTN4 protein; pure human RTN4 protein, gel-based ABPP): less displacement; cell survival in U2OS cells (U2OS osteosarcoma cells): not; ER morphology in U2OS cells [1]: not |
| C=CC(=O)Nc1ccc(Oc2ccc(C(C)(C)C)cc2)cc1 [AMR 1-125, N-(4-(4-(tert-butyl)phenoxy)phenyl)acrylamide] | – | – | improved potency compared to DKM 3-30 (pure human RTN4 protein; competition against probe labelling of pure human RTN4, from IC50 values of FIG. 11B): ~7 fold; cell survival in U2OS cells (U2OS osteosarcoma cells): impaired; ER morphology in U2OS cells [1]: impaired; also recorded: alters ER morphology; cell survival in SW620 cells [2]: impaired |
| C=CC(=O)NC(C)c1ccccc1 (stereo not drawn) [TRH 1-20, N-(1-phenylethyl)acrylamide] | 114 | 121 | – |
| C=CC(=O)Nc1ccc(Cl)cc1 [DKM 2-107, N-(4-chlorophenyl)acrylamide] | 86 | 99 | – |
| O=C(CCl)Nc1cccc2c1CCC2 [DKM 2-91, 2-chloro-N-(2,3-dihydro-1H-inden-4-yl)acetamide] | 38 | 59 | – |
| C=CC(=O)NCc1cc(C)cc(C)c1 [DKM 2-47, N-(3,5-dimethylbenzyl)acrylamide] | 78 | 112 | – |
| COc1ccc(CNC(=O)CCl)cc1 [DKM 2-83, 2-chloro-N-(4-methoxybenzyl)acetamide] | 66 | 48 | – |
| C=CC(=O)N1CCN(c2ccc(OC)cc2)CC1 [DKM 3-36, 1-(4-(4-methoxyphenyl)piperazin-1-yl)prop-2-en-1-one] | 54 | 97 | – |
| Cc1ccccc1CNC(=O)CCl [TRH 1-55, 2-Chloro-N-(2-methylbenzyl)acetamide] | 47 | 53 | – |
| C=CC(=O)NCCc1ccccc1 [DKM 2-42, N-phenethylacrylamide] | 104 | 137 | – |
| C=CC(=O)NC1CCCCC1 [DKM 2-106, N-cyclohexylacrylamide] | 144 | 100 | – |
| O=C(CCl)N1CCCC1 [DKM 2-71, 2-Chloro-1-(pyrrolidin-1-yl)ethan-1-one] | 81 | 41 | – |
| C=CC(=O)NCc1ccccc1C [TRH 1-54, N-(2-methylbenzyl)acrylamide] | 175 | 139 | – |
| C=CC(=O)N(C1CCCCC1)C1CCCCC1 [DKM 2-114, N,N-dicyclohexylacrylamide] | 76 | 111 | – |
| C=CC(=O)Nc1ccccc1 [TRH 1-19, N-Phenylacrylamide] | 101 | 119 | – |
| C=CC(=O)N1CCC(C)CC1 [DKM 3-8, 1-(4-methylpiperidin-1-yl)prop-2-en-1-one] | 152 | 105 | – |
| C=CC(=O)NCCN1CCOCC1 [DKM 2-100, N-(2-morpholinoethyl)acrylamide] | 138 | 100 | – |
| C=CC(=O)NCc1ccccc1-c1ccccc1 [DKM 2-59, N-([1,1′-biphenyl]-2-ylmethyl)acrylamide] | 66 | 74 | – |
| C=CC(=O)N(C)Cc1ccccc1 [DKM 2-95, N-benzyl-N-methylacrylamide] | 52 | 85 | – |
| C=CC(=O)NCc1ccc(-c2ccccc2)cc1 [DKM 2-37, N-([1,1′-biphenyl]-4-ylmethyl)acrylamide] | 57 | 73 | – |
| C=CC(=O)NCCCc1ccccc1 [DKM 2-50, N-(3-phenylpropyl)acrylamide] | 89 | 130 | – |
| C=CC(=O)Nc1ccc(-c2ccc(C#N)cc2)cc1 [DKM 2-98, N-(4′-cyano-[1,1′-biphenyl]-4-yl)acrylamide] | 52 | 42 | – |
| C=CC(=O)Nc1ccc(C(F)(F)F)cc1 [TRH 1-50, N-(4-(trifluoromethyl)phenyl)acrylamide] | 58 | 76 | – |
| C=CC(=O)NC(c1ccccc1)c1ccccc1 [DKM 3-4, N-benzhydrylacrylamide] | 122 | 120 | – |
| C=CC(=O)NCc1ccc(OC)cc1OC [TRH 1-13, N-(2,4-dimethoxybenzyl)acrylamide] | 94 | 128 | – |
| O=C(CCl)NCc1ccccc1 [DKM 2-67, N-benzyl-2-chloroacetamide] | 87 | 73 | – |
| COc1ccc(CNC(=O)CCl)cc1OC [DKM 2-93, 2-chloro-N-(3,4-dimethoxybenzyl)acetamide] | 74 | 57 | – |
